# Measurements from patent US6689806B1, “Indolinone compounds as kinase inhibitors” (Sugen, Inc., priority 1999, dated 2004).
# Where two headings read alike, the source gives them in different places.
# Key:
# Format in all cases: cell-based
# SKOV3 = SKOV3 growth; details: Homo sapiens, SK-OV-3, SKOV3 cells
# EGFR = EGFR (Homo sapiens, UniProt P00533); assay: EGF-induced BrdU incorporation assay; parameters: expressed in transfected cells; host or cells: 3T3; details: 3T3 cells expressing human EGF-R, EGF 2 nM, read-out: BrdU DNA syn. EGFr IC50
# EGFR, sequence (P00533 25-1210): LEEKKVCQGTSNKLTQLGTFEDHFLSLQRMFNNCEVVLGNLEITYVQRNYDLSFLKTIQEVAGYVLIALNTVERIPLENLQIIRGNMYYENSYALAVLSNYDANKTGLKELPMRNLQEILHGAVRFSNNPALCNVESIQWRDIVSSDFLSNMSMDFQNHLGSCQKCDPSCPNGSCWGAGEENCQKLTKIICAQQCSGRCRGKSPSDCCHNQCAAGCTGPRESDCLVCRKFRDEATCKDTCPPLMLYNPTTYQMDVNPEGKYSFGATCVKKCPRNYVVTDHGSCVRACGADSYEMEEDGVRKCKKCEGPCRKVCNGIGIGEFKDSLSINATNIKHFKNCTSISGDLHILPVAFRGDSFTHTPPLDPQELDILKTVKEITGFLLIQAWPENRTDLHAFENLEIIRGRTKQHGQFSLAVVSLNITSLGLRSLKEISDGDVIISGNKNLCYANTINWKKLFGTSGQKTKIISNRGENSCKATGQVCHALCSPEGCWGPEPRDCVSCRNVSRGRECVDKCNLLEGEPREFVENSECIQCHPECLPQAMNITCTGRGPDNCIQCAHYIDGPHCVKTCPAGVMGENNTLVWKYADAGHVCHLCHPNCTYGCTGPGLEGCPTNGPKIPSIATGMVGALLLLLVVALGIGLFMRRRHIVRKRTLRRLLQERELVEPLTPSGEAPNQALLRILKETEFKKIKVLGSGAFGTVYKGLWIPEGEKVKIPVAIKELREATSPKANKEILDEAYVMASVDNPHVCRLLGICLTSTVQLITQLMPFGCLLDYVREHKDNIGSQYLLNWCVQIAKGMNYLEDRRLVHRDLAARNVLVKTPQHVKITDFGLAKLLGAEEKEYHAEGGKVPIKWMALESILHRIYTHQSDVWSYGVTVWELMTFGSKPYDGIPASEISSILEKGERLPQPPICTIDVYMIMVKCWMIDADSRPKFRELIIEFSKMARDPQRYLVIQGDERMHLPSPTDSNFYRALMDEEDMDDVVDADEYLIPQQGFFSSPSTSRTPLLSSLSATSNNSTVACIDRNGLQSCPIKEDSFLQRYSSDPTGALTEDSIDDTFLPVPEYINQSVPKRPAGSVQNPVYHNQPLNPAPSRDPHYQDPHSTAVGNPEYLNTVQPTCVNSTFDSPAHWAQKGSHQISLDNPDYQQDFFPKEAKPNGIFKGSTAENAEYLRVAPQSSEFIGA
# Protocol: The cellular/biologic assays described herein measure the amount of DNA made in response to activation of a test kinase, which is a general measure of a proliferative response. The general procedure for this assay is as follows: a compound is introduced to cells expressing the test kinase, either naturally or recombinantly, for some period of time after which, if the test kinase is a receptor, a ligand known to activate the receptor is added. After incubation at least overnight, a DNA labeling reagent such as Bromodeoxy-uridine (BrdU) or 3H-thymidine is added. The amount of labeled DNA is detected with either an anti-BrdU antibody or by measuring radioactivity and is compared to control cells not contacted with a test compound.
# EGF-Induced BrdU Incorporation Assay
# (8) 3T3 cell line genetically engineered to express human EGF-R.
# (1) Cells are seeded at 8000 cells/well in 10% CS, 2 mM Gin in DMEM, in a 96 well plate. Cells are incubated overnight at 37° C. in 5% CO2.
# (2) After 24 hours, the cells are washed with PBS, and then are serum starved in serum free medium (0% CS DMEM with 0.1% BSA) for 24 hours.
# (3) On day 3, ligand (EGF, 2 nM, prepared in DMEM with 0.1%/BSA) and test compounds are added to the cells simultaneously. The negative control wells receive serum free DMEM with 0.1% BSA only; the positive control cells receive the ligand (EGF) but no test compound. Test compounds are prepared in serum free DMEM with ligand in a 96 well plate, and serially diluted for 7 test concentrations.
# (4) After 20 hours of ligand activation, diluted BrdU labeling reagent (1: 100 in DMEM, 0.1% BSA) is added and the cells are incubated with BrdU (final concentration=10 μM) for 1.5 hours.
# (10) The absorbance of the samples are measured at 410 nm (in “dual wavelength” mode with a filter reading at 490 nm, as a reference wavelength) on a Dynatech ELISA plate reader.
# A431 = A431 growth; details: Homo sapiens, A-431, A431 cells
Compound,IC50 (EGFR; Table 5) [µM],IC50 (EGFR; Table 7) [µM],also measured
"COc1ccc(CC2C(=O)Nc3ccc(F)cc32)cc1C1CCCC1 (centres unmarked) [AAI-5, 3-(3-Cyclopentyl-4-methoxybenzyl)-5-fluoro-1,3-dihydroindol-2-one]",30,,IC50 (SKOV3; Table 5): 17.9 µM; IC50 (A431; Table 5): 5.26 µM
"CC(=O)Nc1ccc2c(c1)NC(=O)C2Cc1ccc(OCCN2CCOCC2)c(C2CCCCC2)c1 (centres unmarked) [AAI-7, N-{3-[3-Cyclohexyl-4-(2-morpholin-4-ylethoxy)-benzyl]-2-oxo-2,3-dihydro-1H-indol-6-yl}-acetamide]",28.1,,
"COc1cccc(-c2ccc3c(c2)NC(=O)C3Cc2[nH]c(C)c(CCCN(C)C)c2C)c1 (centres unmarked) [AAI-21, 3-[4-(3-Dimethylaminopropyl)-3,5-dimethyl-1H-pyrrol-2-ylmethyl]-6-(3-methoxyphenyl)-1,3-dihydroindol-2-one]",27.8,,
"Cc1[nH]c(CC2C(=O)Nc3ccc(Cl)cc32)c(C)c1CCCN(C)C (centres unmarked) [AAI-23, 5-Chloro-3-[4-(3-dimethylaminopropyl)-3,5-dimethyl-1H-pyrrol-2-ylmethyl]-1,3-dihydroindol-2-one]",32.2,,
"COc1ccc(CC2C(=O)Nc3ccc(CCN4CCOCC4)cc32)cc1-c1ccsc1 (centres unmarked) [AAI-8, 3-(4-Methoxy-3-thiophen-3-ylbenzyl)-5-(2-morpholin-4-ylethyl)-1,3-dihydroindol-2-one]",> 50,,
"Cc1cccc2c1C(Cc1ccc3[nH]ccc3c1)C(=O)N2 (centres unmarked) [AAI-16, 3-(1H-Indol-5-ylmethyl)-4-methyl-1,3-dihydroindol-2-one]",> 50,,
"O=C1Nc2ccccc2C1Cc1ccc2[nH]ccc2c1 (centres unmarked) [AAI-17, 3-(1H-Indol-5-ylmethyl)-1,3-dihydroindol-2-one]",> 50,,
"COc1c(C(C)C)cc(CC2C(=O)Nc3ccccc32)cc1C(C)C (centres unmarked) [AAI-10, 3-(3,5-Diisopropyl-4-methoxybenzyl)-1,3-dihydroindol-2-one]",> 50,,IC50 (SKOV3; Table 5): 17.3 µM; IC50 (A431; Table 5): 17.7 µM
"COc1cccc(-c2ccc3c(c2)NC(=O)C3Cc2ccccc2O)c1 (centres unmarked) [AAI-13, 3-(2-Hydroxybenzyl)-6-(3-methoxyphenyl)-1,3-dihydroindol-2-one]",> 50,,IC50 (SKOV3; Table 5): > 50 µM; IC50 (A431; Table 5): > 50 µM
"O=C1Nc2ccc(F)cc2C1Cc1ccc(O)c(C2CCCC2)c1 (centres unmarked) [AAI-11, 3-(3-Cyclopentyl-4-hydroxybenzyl)-5-fluoro-1,3-dihydroindol-2-one]",> 50,,IC50 (SKOV3; Table 5): 21.8 µM; IC50 (A431; Table 5): 29.6 µM
"COc1ccc(CC2C(=O)Nc3cc(NC(C)=O)ccc32)cc1-c1cccs1 (centres unmarked) [AAI-6, N-[3-(4-Methoxy-3-thiophen-2-ylbenzyl)-2-oxo-2,3-dihydro-1H-indol-6-yl]-acetamide]",> 50,,
"Cc1[nH]c(CC2C(=O)Nc3ccccc32)c(C)c1CCCN(C)C (centres unmarked) [AAI-18, 3-[4-(3-Dimethylaminopropyl)-3,5-dimethyl-1H-pyrrol-2-ylmethyl]-1,3-dihydroindol-2-one]",> 50,,IC50 (SKOV3; Table 5): 43 µM; IC50 (A431; Table 5): > 50 µM
"COc1ccccc1-c1ccc2c(c1)NC(=O)C2Cc1[nH]c(C)c(CCCN(C)C)c1C (centres unmarked) [AAI-20, 3-[4-(3-Dimethylamino-propyl)-3,5-dimethyl-1H-pyrrol-2-ylmethyl]-6-(2-methoxy-phenyl)-1,3-dihydro-indol-2-one]",38.5,,IC50 (SKOV3; Table 5): 8.81 µM; IC50 (A431; Table 5): 11.1 µM
"COc1ccc(-c2ccc3c(c2)NC(=O)C3Cc2[nH]c(C)c(CCCN(C)C)c2C)cc1 (centres unmarked) [AAI-22, 3-[4-(3-Dimethylaminopropyl)-3,5-dimethyl-1H-pyrrol-2-ylmethyl]-6-(4-methoxyphenyl)-1,3-dihydroindol-2-one]",27.6,,IC50 (SKOV3; Table 5): > 50 µM; IC50 (A431; Table 5): 32.9 µM

# The next lines start with results.
IC50 (EGFR; Table 5) [µM],IC50 (EGFR; Table 7) [µM],Compound,also measured
,41.5,"CC(C)c1ccccc1OCCc1cccc2c1CC(=O)N2 [IN-002, 4-[2-(2-Isopropyl-phenoxy)-ethyl]-1,3-dihydro-indol-2-one]",IC50 (SKOV3; Table 7): 24.5 µM; IC50 (A431; Table 7): 8.2 µM
> 50,,"COc1ccc(CC2C(=O)Nc3cc(-c4ccccc4)ccc32)c(O)c1 (centres unmarked) [AAI-25, 3-(2-Hydroxy-4-methoxybenzyl)-6-phenyl-1,3-dihydroindol-2-one]",
,11.1,Cc1cccc(/C=C2\C(=O)Nc3cccc(CCO)c32)n1 [IN-006],IC50 (SKOV3; Table 7): 5 µM; IC50 (A431; Table 7): 6 µM
,> 50,"Cc1[nH]c(/C=C2\C(=O)Nc3cccc(CCOc4ccc(C(C)C)cc4)c32)c(C)c1CCC(=O)O [IN-024, 3-(5-{4-[2-(4-Isopropyl-phenoxy)-ethyl]-2-oxo-1,2-dihydro-indol-3-ylidenemethyl}-2,4-dimethyl-1H-pyrro-3-yl)-propionic acid]",
,32.5,"CC(C)c1cccc(OCCc2cccc3c2CC(=O)N3)c1 [IN-001, 4-[2-(3-Isopropyl-phenoxy)-ethyl]-1,3-dihydro-indol-2-one]",IC50 (SKOV3; Table 7): 27.8 µM; IC50 (A431; Table 7): 12.3 µM
,3,"O=C1Nc2cccc(CCO)c2/C1=C/c1ccccn1 [IN-005, 4-(2-Hydroxy-ethyl)-3-pyridin-2-ylmethylene-1,3-dihydro-indol-2-one]",
,31.3,"COc1ccc(/C=C2\C(=O)Nc3cccc(CCO)c32)cc1-c1cccs1 [IN-008, 4-(2-Hydroxy-ethyl)-3-(4-methoxy-3-thiophen-2-yl-benzylidene)-1,3-dihydro-indol-2-one]",IC50 (SKOV3; Table 7): 1.5 µM; IC50 (A431; Table 7): 2.5 µM
,4.7,"O=C1Nc2cccc(CCO)c2/C1=C\c1ccc(Br)cc1 [IN-004, 3-(4-Bromo-benzylidene)-4-(2-hydroxy-ethyl)-1,3-dihydro-indol-2-one]",IC50 (SKOV3; Table 7): 2.9 µM; IC50 (A431; Table 7): 1.1 µM
> 50,,"Cc1cccc(CC2C(=O)Nc3cccc(CCO)c32)n1 (centres unmarked) [AAI-27, 4-(2-Hydroxyethyl)-3-(6-methylpyridin-2-ylmethyl)-1,3-dihydroindol-2-one]",
,> 50,"Cc1ccc(O)c(C=C2C(=O)Nc3cccc(CCO)c32)n1 (racemic) [IN-022, 4-(2-Hydroxy-ethyl)-3-(3-hydroxy-6-methyl-pyridin-2-ylmethylene)-1,3-dihydro-indol-2-one]",
,29,"O=C1Cc2c(CCOc3cccc(-c4ccccc4)c3)cccc2N1 [IN-003, 4-[2-(Biphenyl-3-yloxy)-ethyl]-1,3-dihydro-indol-2-one]",IC50 (SKOV3; Table 7): 17.8 µM; IC50 (A431; Table 7): 8.7 µM
,28.7,Cc1[nH]c(/C=C2\C(=O)Nc3cccc(CCOc4cccc(C(C)C)c4)c32)c(C)c1CCCN(C)C [IN-023],
> 50,,"O=C1Nc2cc(-c3ccccc3)ccc2C1Cc1cccc(F)c1O (centres unmarked) [AAI-24, 3-(3-Fluoro-2-hydroxybenzyl)-6-phenyl-1,3-dihydroindol-2-one]",
